Measured values: PubChem BioAssay (NCI)
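1) Cells in 96-well plates. 2) Compound, 48 h, 5 concentrations. 3) Linear interpolation between surrounding doses. 4) Unreached endpoint = highest concentration. GI50: concentration for 50% inhibition of growth. Definition used: TGI = concentration required for complete inhibition of growth.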 Where a SMILES comes first, the peptide text is derived from it. [ ]: non-standard residue; d: D form. Phe(4-Cl) = N[CH](Cc1ccc(Cl)cc1)C(=O)O; 2Nal = N[CH](Cc1ccc2ccccc2c1)C(=O)O; 3Pal = N[CH](Cc1cccnc1)C(=O)O

Columns and labels:
Experiment in all cases: DTP human tumour cell line panel, 48 h
OVCAR-5 ovarian = tested on: OVCAR-5 ovarian
SW-620 colon = tested on: SW-620 colon
RPMI-8226 leukemia = tested on: RPMI-8226 leukemia
HS 578T breast = tested on: HS 578T breast
NCI-H226 lung = tested on: NCI-H226 lung
NCI-H460 lung = tested on: NCI-H460 lung
KM12 colon = tested on: KM12 colon
HCT-15 colon = tested on: HCT-15 colon
BT-549 breast = tested on: BT-549 breast
OVCAR-3 ovarian = tested on: OVCAR-3 ovarian
K-562 leukemia = tested on: K-562 leukemia
HOP-62 NSCLC = tested on: HOP-62 NSCLC
MCF7 breast = tested on: MCF7 breast
CCRF-CEM leukemia = tested on: CCRF-CEM leukemia
UO-31 renal = tested on: UO-31 renal
RXF 393 renal = tested on: RXF 393 renal
MOLT-4 leukemia = tested on: MOLT-4 leukemia
HOP-92 NSCLC = tested on: HOP-92 NSCLC
SF-268 CNS = tested on: SF-268 CNS
COLO 205 colon = tested on: COLO 205 colon
HCT-116 colon = tested on: HCT-116 colon
HL-60(TB) leukemia = tested on: HL-60(TB) leukemia
SNB-19 CNS = tested on: SNB-19 CNS
HCC-2998 colon = tested on: HCC-2998 colon
SF-539 CNS = tested on: SF-539 CNS
SN12C renal = tested on: SN12C renal
SK-MEL-5 melanoma = tested on: SK-MEL-5 melanoma
TK-10 renal = tested on: TK-10 renal
NCI/ADR-RES ovarian = tested on: NCI/ADR-RES ovarian
HT29 colon = tested on: HT29 colon
A498 renal = tested on: A498 renal
A549 NSCLC = tested on: A549 NSCLC
OVCAR-8 ovarian = tested on: OVCAR-8 ovarian
ACHN renal = tested on: ACHN renal
M14 melanoma = tested on: M14 melanoma
MALME-3M melanoma = tested on: MALME-3M melanoma
T-47D breast = tested on: T-47D breast
MDA-MB-435 = tested on: MDA-MB-435
U251 CNS = tested on: U251 CNS
DU-145 prostate = tested on: DU-145 prostate
786-0 renal = tested on: 786-0 renal
SK-OV-3 ovarian = tested on: SK-OV-3 ovarian
LOX IMVI melanoma = tested on: LOX IMVI melanoma
UACC-257 melanoma = tested on: UACC-257 melanoma
SR leukemia = tested on: SR leukemia
IGROV1 ovarian = tested on: IGROV1 ovarian
UACC-62 melanoma = tested on: UACC-62 melanoma
PC-3 prostate = tested on: PC-3 prostate
NCI-H23 lung = tested on: NCI-H23 lung
CAKI-1 renal = tested on: CAKI-1 renal
MDA-MB-231 breast = tested on: MDA-MB-231 breast
SNB-75 CNS = tested on: SNB-75 CNS
EKVX NSCLC = tested on: EKVX NSCLC
SK-MEL-2 melanoma = tested on: SK-MEL-2 melanoma
SF-295 CNS = tested on: SF-295 CNS

## O=C(O)c1cn(C2CC2)c2cc(N3CCN(S(=O)(=O)c4ccc(Cl)c(Cl)c4)CC3)c(F)cc2c1=O
OVCAR-5 ovarian
  GI50: 4.14 µM
  TGI: > 100 µM
SW-620 colon
  GI50: 4.05 µM
  TGI: > 100 µM
RPMI-8226 leukemia
  GI50: 2.53 µM
  TGI: 7.59 µM
HS 578T breast
  GI50: 4.26 µM
  TGI: > 100 µM
NCI-H226 lung
  GI50: 3.58 µM
  TGI: > 100 µM
NCI-H460 lung
  GI50: 3.66 µM
  TGI: > 100 µM
KM12 colon
  GI50: 3.62 µM
  TGI: > 100 µM
HCT-15 colon
  GI50: 3.3 µM
  TGI: > 100 µM
BT-549 breast
  GI50: 2.98 µM
  TGI: > 100 µM
OVCAR-3 ovarian
  GI50: 3.9 µM
  TGI: 44 µM
K-562 leukemia
  GI50: 3.92 µM
  TGI: > 100 µM
HOP-62 NSCLC
  GI50: 4.77 µM
  TGI: > 100 µM
MCF7 breast
  GI50: 2.84 µM
  TGI: > 100 µM
CCRF-CEM leukemia
  GI50: 2.61 µM
  TGI: > 100 µM
UO-31 renal
  GI50: 2.58 µM
  TGI: > 100 µM
RXF 393 renal
  GI50: 2.98 µM
  TGI: 9.51 µM
MOLT-4 leukemia
  GI50: 4 µM
  TGI: > 100 µM
HOP-92 NSCLC
  GI50: 1.54 µM
  TGI: 5.71 µM
SF-268 CNS
  GI50: 4.77 µM
  TGI: > 100 µM
COLO 205 colon
  GI50: 3.5 µM
  TGI: 11.9 µM
HCT-116 colon
  GI50: 3.86 µM
  TGI: > 100 µM
HL-60(TB) leukemia
  GI50: 2.04 µM
  TGI: 5.17 µM
SNB-19 CNS
  GI50: 3.25 µM
  TGI: > 100 µM
HCC-2998 colon
  GI50: 4.46 µM
  TGI: > 100 µM
SF-539 CNS
  GI50: 3.39 µM
  TGI: > 100 µM
SN12C renal
  GI50: 2.97 µM
  TGI: > 100 µM
SK-MEL-5 melanoma
  GI50: 2.04 µM
  TGI: 4.42 µM
TK-10 renal
  GI50: 4.31 µM
  TGI: > 100 µM
NCI/ADR-RES ovarian
  GI50: 4.01 µM
  TGI: > 100 µM
HT29 colon
  GI50: 3.77 µM
  TGI: > 100 µM
A498 renal
  GI50: 2.91 µM
  TGI: > 100 µM
A549 NSCLC
  GI50: 3.08 µM
  TGI: > 100 µM
OVCAR-8 ovarian
  GI50: 3.33 µM
  TGI: > 100 µM
ACHN renal
  GI50: 3.1 µM
  TGI: > 100 µM
M14 melanoma
  GI50: 4.06 µM
  TGI: > 100 µM
MALME-3M melanoma
  GI50: 2.3 µM
  TGI: 5.24 µM
T-47D breast
  GI50: 3.77 µM
  TGI: > 100 µM
MDA-MB-435
  GI50: 2.97 µM
  TGI: > 100 µM
U251 CNS
  GI50: 3.33 µM
  TGI: > 100 µM
DU-145 prostate
  GI50: 4.31 µM
  TGI: > 100 µM
786-0 renal
  GI50: 4.02 µM
  TGI: > 100 µM

## NCCCn1c2c(c3ccc([N+](=O)[O-])cc3c1=O)C(=O)c1cc3c(cc1-2)OCO3
RPMI-8226 leukemia
  GI50: < 0.017 µM
  TGI: 2.14 µM
SK-OV-3 ovarian
  GI50: 0.32 µM
LOX IMVI melanoma
  GI50: < 0.01 µM
  TGI: 0.121 µM
KM12 colon
  GI50: 0.321 µM
  TGI: 4.42 µM
UACC-257 melanoma
  GI50: 0.372 µM
  TGI: 3 µM
HCT-15 colon
  GI50: 0.0282 µM
  TGI: 0.201 µM
SR leukemia
  GI50: 0.0225 µM
  TGI: > 100 µM
BT-549 breast
  GI50: 0.164 µM
  TGI: 1.76 µM
OVCAR-3 ovarian
  GI50: 0.886 µM
  TGI: 3.21 µM
IGROV1 ovarian
  GI50: 0.478 µM
  TGI: > 100 µM
K-562 leukemia
  GI50: 0.0581 µM
HOP-62 NSCLC
  GI50: 1.43 µM
  TGI: > 100 µM
CCRF-CEM leukemia
  GI50: 0.0164 µM
  TGI: > 100 µM
UO-31 renal
  GI50: < 0.01 µM
  TGI: 0.2 µM
MOLT-4 leukemia
  GI50: < 0.01 µM
  TGI: > 100 µM
HOP-92 NSCLC
  GI50: 2.6 µM
  TGI: 11.1 µM
HCT-116 colon
  GI50: > 100 µM
  TGI: > 100 µM
UACC-62 melanoma
  GI50: 0.0288 µM
  TGI: 1.65 µM
HL-60(TB) leukemia
  GI50: < 0.0155 µM
PC-3 prostate
  GI50: 1.17 µM
  TGI: 3.56 µM
NCI-H23 lung
  GI50: 0.0228 µM
  TGI: 1.14 µM
SN12C renal
  GI50: < 0.01 µM
  TGI: 0.385 µM
SK-MEL-5 melanoma
  GI50: 0.0273 µM
  TGI: 0.247 µM
TK-10 renal
  GI50: 1.83 µM
  TGI: 4.98 µM
HT29 colon
  GI50: 0.148 µM
  TGI: > 100 µM
CAKI-1 renal
  GI50: < 0.01 µM
  TGI: 0.491 µM
OVCAR-8 ovarian
  GI50: 0.106 µM
  TGI: 0.402 µM
ACHN renal
  GI50: < 0.01 µM
MDA-MB-231 breast
  GI50: 0.44 µM
  TGI: 0.935 µM
MALME-3M melanoma
  GI50: 0.488 µM
  TGI: 2.82 µM
MDA-MB-435
  GI50: 0.592 µM
  TGI: 3.28 µM
DU-145 prostate
  GI50: < 0.01 µM
  TGI: 1.48 µM

## CC(=O)NC(Cc1ccc2ccccc2c1)C(=O)NC(Cc1ccc(Cl)cc1)C(=O)NC(Cc1cccnc1)C(=O)NC(CO)C(=O)NC(Cc1ccc(O)cc1)C(=O)NC(CCCN=C(N)N)C(=O)NC(CC(C)C)C(=O)NC(CCCN=C(N)N)C(=O)N1CCCC1C(=O)NC(C)C(N)=O (stereo unspecified) (Ac-[2Nal][Phe(4-Cl)][3Pal]SYRLRPA-NH2; configuration not given here)
NCI-H226 lung
  TGI: > 100 µM
UACC-257 melanoma
  TGI: > 100 µM
BT-549 breast
  TGI: > 100 µM
HOP-92 NSCLC
  TGI: > 100 µM
NCI-H23 lung
  TGI: > 100 µM

## N/C(=N\Nc1nc2cc([N+](=O)[O-])ccc2o1)c1ccccn1
SW-620 colon
  TGI: > 100 µM
RPMI-8226 leukemia
  TGI: 4.83 µM
SK-OV-3 ovarian
  TGI: 6.38 µM
HS 578T breast
  TGI: > 100 µM
NCI-H226 lung
  TGI: 38 µM
LOX IMVI melanoma
  TGI: 3.68 µM
NCI-H460 lung
  TGI: 1.19 µM
UACC-257 melanoma
  TGI: 0.341 µM
SR leukemia
  TGI: 0.0696 µM
SNB-75 CNS
  TGI: 2.13 µM
BT-549 breast
  TGI: 3.68 µM
EKVX NSCLC
  TGI: 0.202 µM
K-562 leukemia
  TGI: > 100 µM
HOP-62 NSCLC
  TGI: 2.8 µM
RXF 393 renal
  TGI: 0.497 µM
HOP-92 NSCLC
  TGI: 5.71 µM
SF-268 CNS
  TGI: 1.62 µM
SK-MEL-2 melanoma
  TGI: 2.63 µM
HCT-116 colon
  TGI: 0.222 µM
UACC-62 melanoma
  TGI: 1.54 µM
PC-3 prostate
  TGI: 6.14 µM
NCI-H23 lung
  TGI: 4.26 µM
SF-539 CNS
  TGI: 1 µM
SN12C renal
  TGI: 3.85 µM
SK-MEL-5 melanoma
  TGI: 1.45 µM
TK-10 renal
  TGI: 5.51 µM
SF-295 CNS
  TGI: 14 µM
NCI/ADR-RES ovarian
  TGI: 4.45 µM
A498 renal
  TGI: 3.6 µM
CAKI-1 renal
  TGI: 8.44 µM
OVCAR-8 ovarian
  TGI: 10.6 µM
ACHN renal
  TGI: 9.6 µM
MDA-MB-231 breast
  TGI: 2.13 µM
MALME-3M melanoma
  TGI: 58.4 µM
T-47D breast
  TGI: 0.796 µM
MDA-MB-435
  TGI: > 100 µM
U251 CNS
  TGI: 1.23 µM
DU-145 prostate
  TGI: 1.11 µM
786-0 renal
  TGI: 1.93 µM
